In assay [1] the target is full-length human PRMT8 isoform 1 (Homo sapiens, UniProt Q9NR22). The assay can be described thus: PRMT8 Biochemical Assay (3H-SAM Flashplate, peptide substrate). In a few lines: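 Scintillation Flashplate capture of biotinylated histone H4 (31-45) peptide (150 nM) methylated by 1.5 nM PRMT8 using 3H-SAM (50 nM) with unlabelled SAM (550 nM); enzyme and compound preincubated 30 min, room temperature, in Bicine pH 7.6 buffer with TCEP, BSG, Tween 20 and 2% DMSO. Stopped with excess cold SAM (400 uM); IC50 from % inhibition, min control 1 mM SAH.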

Assay [2] has as its system mono-methyl arginine in RKO cells. The assay can be described thus: RKO Methylation Assay, In Cell Western (ICW) for detection of mono-methyl arginine and DNA content. Type of assay: cell-based. Conditions: for EC30: Homo sapiens, RKO, 72 h. The essentials:
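RKO cells were treated with compound for 72 hours at 37 °C, methanol-fixed and stained overnight at 4 °C with anti-mono-methyl arginine (1:200), with DRAQ5 for DNA. Odyssey 800/700 nm intensity ratio was normalized to DMSO and 20 μM reference-compound controls. EC30 from triplicate nine-point curves.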

Where [3] appears, read: read-out: Biochemical IC50 PRMT8.
[4] abbreviates: single experiment or average of multiple experiments, read-out: Biochemical IC50 PRMT8.
[5] abbreviates: RKO cells, 72 hours compound incubation, mono-methyl arginine signal normalised to DNA content (DRAQ5), percent activation vs 20 μM reference compound, read-out: In Cell Western EC30.
Where [6] appears, read: RKO cells, 72 hours incubation, mono-methyl arginine signal normalised to DNA content, single experiment or average of multiple experiments, read-out: In Cell Western EC30.
Where [7] appears, read: RKO cells, 72 hours compound incubation, mono-methyl arginine signal normalised to DNA content (DRAQ5), percent activation vs 20 μM reference compound.

Like-named read-outs stand apart in the source and are kept apart here. A value given as a limit tells only on which side of the number the result lay.

full-length human PRMT8 isoform 1, sequence (Q9NR22 whole entry, canonical isoform): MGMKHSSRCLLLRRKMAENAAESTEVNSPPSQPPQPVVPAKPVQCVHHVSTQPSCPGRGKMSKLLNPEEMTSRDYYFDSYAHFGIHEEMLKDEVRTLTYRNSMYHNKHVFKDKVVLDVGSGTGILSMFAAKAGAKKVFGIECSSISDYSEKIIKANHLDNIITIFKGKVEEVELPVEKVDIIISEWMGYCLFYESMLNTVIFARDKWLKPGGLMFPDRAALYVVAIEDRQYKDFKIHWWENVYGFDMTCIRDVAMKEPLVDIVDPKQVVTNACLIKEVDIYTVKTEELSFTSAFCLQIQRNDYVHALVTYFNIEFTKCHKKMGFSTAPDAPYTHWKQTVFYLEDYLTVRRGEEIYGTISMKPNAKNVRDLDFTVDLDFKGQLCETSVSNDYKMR

Usually IC50 stands for the concentration that gives 50% inhibition. For orientation: EC30 means the point of the concentration-response curve where the effect stands at 30%. On to `CCC(CC)OC1CCC(c2n[nH]cc2CN(C)CCNC)CC1` (stereo not shown) [Compound 70], for which the IC50 is under 100 nM in assay [1] (setting [3]) and 24.2 nM in assay [1] (setting [4]). The EC30 in assay [2] (setting [5]) was under 3000 nM; in assay [2] (setting [6]), 50 nM.
Turning to `CNCCN(C)Cc1c[nH]nc1C1CCN(C(=O)Cc2ccccc2)CC1` [Compound 32], in assay [1] (setting [4]), the IC50 was 770 nM. Also, the EC30 in assay [2] (setting [6]) came out at 2350 nM. Further, the “In Cell Western EC30” value in assay [2] (setting [7]) is reported as “A (“A” indicates an EC30 ≤ 3.00 μM)”.
For `CCCc1n[nH]cc1CN(C)CCN` [Compound 29], in that order: 3810 nM, over 20000 nM and “C (“C” indicates an EC30 > 12.01 μM)”.
`CCOCC1CC(c2n[nH]cc2CN(C)CCNC)CC(COCC)C1(C)C` (stereo not shown) [Compound 87]: the results for the IC50 in assay [1] (setting [3]) and in assay [1] (setting [4]) were 1010 to 3000 nM and 1010 nM, respectively. Also, the EC30 in assay [2] (setting [5]) is under 3000 nM; in assay [2] (setting [6]), 2530 nM.
For `CNCCN(C)Cc1c[nH]nc1C1CCC(C)(C)C(C(=O)NCCC(C)C)C1` (stereo not shown) [Compound 91], in that order: under 100 nM, 29 nM, under 3000 nM and 2060 nM.
For the compound `CNCCN(C)Cc1c[nH]nc1[C@H]1CC[C@@]2(CC1)CC(C)(C)CO2` [Compound 133, Methyl[2-(methylamino)ethyl]([3-[(5s,8s)-3,3-dimethyl-1-oxaspiro[4.5]decan-8-yl]-1H-pyrazol-4-yl]methyl)amine], the IC50 in assay [1] (Biochemical IC50 PRMT8) was under 100 nM; in assay [1] (Biochemical IC50 PRMT8, single experiment or average of multiple experiments), 9.1 nM. Also, the EC30 in assay [2] (read-out: In Cell Western EC30, RKO cells, 72 hours compound incubation, mono-methyl arginine signal normalised to DNA content (DRAQ5), percent activation vs 20 μM reference compound) was under 3000 nM; in assay [2] (read-out: In Cell Western EC30, RKO cells, 72 hours incubation, mono-methyl arginine signal normalised to DNA content, single experiment or average of multiple experiments), 43.8 nM.
As to `CC(C)c1n[nH]cc1CN(C)CCN` [Compound 21], the IC50 in assay [1] (setting [4]) is 9560 nM. The EC30 in assay [2] (setting [6]) was over 20000 nM. Further, the “In Cell Western EC30” value in assay [2] (setting [7]) is recorded as “C (“C” indicates an EC30 > 12.01 μM)”.
For the compound `CNCCN(C)Cc1c[nH]nc1C1CCC(CCOC)CC1` (stereo not shown) [Compound 55], the IC50 in assay [1] (setting [4]) stood at 24.7 nM. For the same compound, the EC30 in assay [2] (setting [5]) is under 3000 nM; in assay [2] (setting [6]) it was 63 nM.

The values above are taken from patent US11512053B2, “Arginine methyltransferase inhibitors and uses thereof” (priority 2013, dated 2022).
